“Also recorded” adds a separate entry of the source.
Legend:
Assay type in all cases: physicochemical
[1] = solubility in water / aqueous environments
[2] = hygroscopicity of the crystalline non-solvate form in humid or dry air
[3] = solid-form stability on standing (conversion to other forms); conditions: crystalline non-solvate form

solubility in water [1]: very poorly soluble in water | hygroscopicity [2]: non-hygroscopic
Compound: COc1cc(F)c(C(C)C)cc1-c1ccc(C(F)(F)F)cc1CN1C(=O)O[C@H](c2cc(C(F)(F)F)cc(C(F)(F)F)c2)[C@@H]1C [compound 12, (4S,5R)-5-[3,5-bis(trifluoromethyl)phenyl]-3-{[4′-fluoro-5′-isopropyl-2′-methoxy-4-(trifluoromethyl)biphenyl-2-yl]methyl}-4-methyl-1,3-oxazolidin-2-one]
hydrate formation [2]: does not convert to a hydrate in humid or dry air | conversion of crystal form on standing ([3]; elevated temperatures): converts more rapidly to the amorphous form at elevated temperatures | conversion of crystal form on standing ([3]; room temperature): slowly converts to the amorphous form on standing for long periods of time; also recorded: stable at room temperature for moderate periods of time with respect to changing to the amorphous form

— patent US7863307B2, “Process for synthesizing a CETP inhibitor” (priority 2005, dated 2011)
